The values below come from publication PMC5750218, “Protein-inspired antibiotics active against vancomycin- and daptomycin-resistant bacteria” (Nature Communications, 2018).

Series [1] relates to Methicillin-resistant S. aureus ATCC 43300. Description: microbe, parasite or virus in culture. A digest of the protocol: (§1)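 Broth microdilution in Mueller Hinton broth with twofold serial dilutions of compound from 8 to 0.003 µg mL^−1.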
The subject of the next series is MRSA. Conditions: MRSA in 50% human serum / 50% MHB. As to the method:
The compounds, along with standard antibiotics were serially diluted twofold across the wells of 96-well non-binding surface (NBS) polystyrene plates (Corning 3641). […] Standards ranged from 64 to 0.03 µg mL^−1 and compounds from 8 to 0.003 µg mL^−1 with final assay volumes of 100 µL per well. Gram-positive bacteria were cultured in Mueller Hinton broth (MHB) (Bactolaboratories, Cat. no. 211443) at 37 °C overnight. A sample of each culture was then diluted 40-fold in fresh MHB and incubated at 37 °C for 2–3 h. […] All the plates were covered and incubated at 37 °C for 24 h. MICs were the lowest concentration showing no visible growth.
The compounds, along with standard antibiotics, tested in BMD-MIC assay as above, in the presence of a mixture of 50% human serum (Sigma-Aldrich) and 50% MHB.

Series [2] concerns Multi-drug-resistant S. pneumoniae ATCC 700677. Description: microbe, parasite or virus in culture. A digest of the protocol: as §1
Series [3] has as its system Vancomycin-intermediate S. aureus NRS1. Kind of series: microbe, parasite or virus in culture. A digest of the protocol: as §1
For series [4], the system named is Vancomycin-resistant (VanA) Enterococcus faecium ATCC 51559. Description: microbe, parasite or virus in culture. A digest of the protocol: as §1
The nature of series [5]: Cytotoxicity MTT assay. The series is classed as cell-based, human. Conditions: human.
A short description of series [6]: Cytotoxicity MTT assay. In kind it is cell-based, human. Conditions: human. A digest of the protocol: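 Duplicate wells were used, with viability calculated against untreated and positive-control wells. Readout was MTT reduction: 2 h with 0.4 mg mL^−1 MTT, formazan dissolved in DMSO, absorbance at 570 nm. Before that, compound was applied 24 h at 37 °C over 100–0.046 µM (threefold dilutions) to HepG2 or HEK293 cells seeded 24 h earlier in DMEM/1% FBS.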
The source holds these as a separate data set.

A short description of a further series: Haemolysis assay. Conditions: human, whole blood. In kind it is cell-based. As to the method:
Haemolytic activity was measured as previously described with slight modifications, [45]. Fresh human venal blood was collected from healthy volunteers and pretreated with the anticoagulant sodium citrate. Serial twofold dilutions of each antibiotic, dissolved in 0.9% NaCl solution, were added to fresh human whole blood (50% final, vol:vol) to the final volume of 80 μL and incubated at 37 °C for 3 h on a horizontal shaker at 200 rpm. For negative and positive controls, human whole blood in 0.9% NaCl solution (A blank) and in sdH2O (A water) were used, respectively. After incubation, both test and A blank were mixed with 1 mL 0.9% NaCl solution, or sdH2O for the complete […] A water. After centrifugation of samples at 2500 rpm (700 × g) for 5 min, the release of haemoglobin was monitored by measuring the absorbance (A sample) of the supernatant at 540 nm using BMG Labtech PolarStar Omega multimode reader. The percentage of haemolysis was calculated according to the equation: %haemolysis=Asample-Ablank∕Awater-Ablank×100

Series [7] has as its system Bacillus subtilis ATCC 6633. Kind of series: microbe, parasite or virus in culture. The series is classed as cell-based. The conditions noted are these: for Ac2Kaa concentration required to neutralise MIC activity / MIC: ATCC 6633, 48 h; for Molar excess of Ac2Kaa ligand required to antagonise antibacterial activity: [ligand]/[antibiotic], B. subtilis ATCC 6633, 24 h. As to the method: All compounds were dissolved in H2O. Bacillus subtilis ATCC® 6633™ NRS-231 was cultured in MHB at 37 °C for 48 h. A sample of each culture was then diluted 40-fold in fresh MHB and incubated at 37 °C for 18 h. Compounds were added to each row of 96-well NBS plates (NBS, Corning 3641), in duplicate. The tripeptide N,N΄-diacetyl-L-Lys-D-Ala-D-Ala was serially diluted twofold across the compound-containing wells from 6400 to 3 µg mL^−1. To this the resultant mid-log phase cultures were diluted to the final concentration of 5 × 10^5 CFU mL^−1, then added to wells of the compound-containing plates. All the plates were covered and incubated at 37 °C for 24 h.

The conditions of series [8]: 37 °C, 20 µM.
Experimental: (§2) Briefly, test compounds (20 μM) were prepared from a 0.2 mM H2O stock solution (40 μL in 400 μL assay volume) except eucatropine, which was 300 μg mL^−1 in 100% DMSO (10 μL in 400 μL assay volume equivalent to 23 μM). The precipitating solution was prepared by adding 5 μL of 10 mM carbutamide in DMSO to 100 mL acetonitrile (final concentration: 135.5 ng mL^−1 or 0.5 μM carbutamide). The human plasma sample (pooled normal human plasma sodium heparin anticoagulant, 2 µL, Cat No.: [sequence], BioReclamation) and phosphate-buffer saline (PBS, pH 7.4 isotonic) were pre-heated at 37 °C for 30 min. 40 μL of test compounds (0.2 mM) were added to protein-low binding Eppendorf tubes, 160 μL of buffer was added, and the mixture was vortexed. For eucatropine, 10 μL of eucatropine (300 μg mL^−1) was added to a protein-low binding Eppendorf tube, 190 μL of buffer was added, and the mixture was vortexed. In each case, 200 μL of plasma was added and the resultant mixture vortexed. For the initial time point (reaction time t = 0 h), 50 μL of sample was immediately transferred into a protein-low binding Eppendorf tube and quenched with 150 μL of the ice-cold precipitating solution, followed by vortexing and subsequent storage at 4 °C. For the remaining time points, the plasma solution was incubated and shaken (150 rpm) at 37 °C. 50 μL aliquots were collected at time points of 0, 1, 3, 6 and 24 h and quenched with 150 μL the ice-cold precipitating solution. All samples were placed in a 4 °C fridge for 30 min then centrifuged at 14,000 × g for 8 min at 4 °C. The supernatant (100 μL) was transferred to a glass vial insert and stored at 4 °C until LC-MS/MS analysis. The percentage of test compounds remaining at the individual time points relative to sample at time point 0 h were reported.
The next series is described as follows: in vitro. Conditions: human, 50% human plasma (pooled, sodium heparin) in PBS, pH 7.4.
Series [9] in a line: Critical micelle concentration assay. The series is classed as physicochemical. The conditions noted are these: 0.2 M NaCl, DPH. As to the method:
CMCs were determined as previously described[46] with a higher throughput modification. Briefly, a cascade dilution of each antibiotic was performed in a low binding polypropylene V-bottom shaped 96-well plates in the presence of 0.2 M NaCl solution across 12 concentrations ranging from 1000 to 0.1 μM, except the control melittin (100 to 0.01 μM). An identical cascade dilution was performed for the neutral detergent Triton X-100 and the anionic detergent sodium dodecyl sulphate (SDS) starting from 0.1% down to 0.00001% (vol:vol for Triton X-100 and wt:vol for SDS). An aliquot of […] (DPH) in DMSO was added in each well to yield the final DPH concentration of 5 μM. The reaction mixtures were mixed for 30 s and transferred in horizontal triplicate (25 μL per well) into a black falcon 384-well plate. The 384-well plate was then sealed, wrapped up in aluminium foil and incubated for 30 min at room temperature. The fluorescence intensity was monitored in real time using a BMG Labtech PolarStar Omega multimode reader fitted with 360-10 and 430-10 excitation and emission filters respectively, at an excitation wavelength of 360 nm and an emission wavelength of 430 nm.

≈ marks a conversion by molar mass, not a printed value. Where “and” joins values, the source holds several entries; their conditions need not be identical. Equal entries are not always repeated. Where two headings read alike, the source gives them in different places. Bounds are passed on as bounds.

Experimental for in vitro: as §2

Turning to `CCCCCCCCCCCCCC(=O)NCC(=O)N[C@@H](CO)C(=O)N[C@@H](CO)C(=O)N[C@@H](CCCCN)C(=O)N[C@@H](CO)C(=O)N1CCC[C@H]1C(=O)N[C@@H](CO)C(=O)N[C@@H](CCCCN)C(=O)N[C@@H](CCCCN)C(=O)N[C@@H](CCCCN)C(=O)N[C@@H](CCCCN)C(=O)N[C@@H](CCCCN)C(=O)N[C@@H](CCCCN)C(=O)N1CCC[C@H]1C(=O)NCC(=O)N[C@@H](CC(=O)O)C(=O)N[C@@H](CSSCCNC(=O)[C@H]1NC(=O)[C@H]2NC(=O)[C@H](NC(=O)[C@@H]3NC(=O)[C@H](CC(N)=O)NC(=O)[C@H](NC(=O)[C@@H](CC(C)C)NC)[C@H](O)c4ccc(c(Cl)c4)Oc4cc3cc(c4O[C@@H]3O[C@H](CO)[C@@H](O)[C@H](O)[C@H]3O[C@H]3C[C@](C)(N)[C@H](O)[C@H](C)O3)Oc3ccc(cc3Cl)[C@H]2O)c2ccc(O)c(c2)-c2c(O)cc(O)cc21)C(N)=O` [Compound 8], the “MIC MRSA” value in series [1] (S. aureus ATCC 43300, NBS plates, MHB, 24 h, substance alone) worked out at 0.5 µg/mL (≈ 0.143 µM). In addition, in the series on MRSA, the “MIC +50% HS” value was greater than 8 µg/mL. The “MIC MDR S.P.” value in [2] (S. pneumoniae ATCC 700677) amounted to 0.5 µg/mL (≈ 0.143 µM). In addition, the “MIC VISA” value in series [3] (S. aureus NRS1) came out at 4 µg/mL (≈ 1.14 µM). In addition, the “MIC VRE” value in series [4] (E. faecium MDR VanA ATCC 51559, substance alone) amounted to 0.125 µg/mL (≈ 0.0357 µM). Further, the CC50 at 24 h in the series “Cytotoxicity MTT assay [5]” (24 h, MTT, 1% FBS, read-out: Cytotoxicity CC50 HepG2) was found to be 10 µM; in “Cytotoxicity MTT assay [6]” (24 h, MTT, 1% FBS, read-out: Cytotoxicity CC50 HEK293), 22 µM.
In the case of `CCCCCCCCCCCCCC(=O)NCC(=O)N[C@@H](CO)C(=O)N[C@@H](CCCCN)C(=O)N[C@@H](CCCCN)C(=O)N[C@@H](CCCCN)C(=O)N[C@@H](CSSCCNC(=O)[C@H]1NC(=O)[C@H]2NC(=O)[C@H](NC(=O)[C@@H]3NC(=O)[C@H](CC(N)=O)NC(=O)[C@H](NC(=O)[C@@H](CC(C)C)NC)[C@H](O)c4ccc(c(Cl)c4)Oc4cc3cc(c4O[C@@H]3O[C@H](CO)[C@@H](O)[C@H](O)[C@H]3O[C@H]3C[C@](C)(N)[C@H](O)[C@H](C)O3)Oc3ccc(cc3Cl)[C@H]2O)c2ccc(O)c(c2)-c2c(O)cc(O)cc21)C(=O)O` [Compound 14], the “MIC MRSA” value in [1] (ATCC 43300, 24 h) was less than 0.003 µg/mL. In [2] (ATCC 700677), the “MIC MDR S.P.” value is less than 0.003 µg/mL. Further, the “MIC VISA” value in series [3] (Vancomycin-intermediate NRS1) is less than 0.003 µg/mL. For the same compound, the “MIC VRE” value in [4] (ATCC 51559) worked out at 0.09 µg/mL (≈ 0.038 µM). This compound also had a CC50 at 24 h in the series “Cytotoxicity MTT assay [5]” of 4 µM. In “Cytotoxicity MTT assay [6]”, this compound returned a CC50 at 24 h of 11 µM. Besides, in the series “Haemolysis assay” (100 µg mL-1), the hemolysis at 3 h turned out to be 0.4%. The hemolysis at 3 h in “Haemolysis assay” (1600 µg mL-1) worked out at 6.4%. Further, in series [7], the “Ac2Kaa concentration required to neutralise MIC activity” value (“Ac2Kaa concentration required” for short) was greater than 3200 µg/mL and the MIC was no more than 0.004 µg/mL. In [8], the “% compound remaining after incubation in 50% human plasma, 0h” value (“% compound remaining after incubation” below) came to 100%. Also, in “in vitro”, the fraction remaining at 1 h, 20 µM came to 119%; the fraction remaining at 6 h, 20 µM amounted to 82%; the amount remaining at 24 h, 20 µM was 18%.
For `CCCCCCCCCCC(=O)N[C@@H](CCCCNC(=O)[C@H]1NC(=O)[C@H]2NC(=O)[C@H](NC(=O)[C@@H]3NC(=O)[C@H](CC(N)=O)NC(=O)[C@H](NC(=O)[C@@H](CC(C)C)NC)[C@H](O)c4ccc(c(Cl)c4)Oc4cc3cc(c4O[C@@H]3O[C@H](CO)[C@@H](O)[C@H](O)[C@H]3O[C@H]3C[C@](C)(N)[C@H](O)[C@H](C)O3)Oc3ccc(cc3Cl)[C@H]2O)c2ccc(O)c(c2)-c2c(O)cc(O)cc21)C(=O)O` [Compound 20, nC10CO-K(Vancomycin)-OH], in series [1] (ATCC 43300, 24 h), the “MIC MRSA” value is 0.125 µg/mL (≈ 0.0716 µM). The “MIC MDR S.P.” value in [2] (ATCC 700677) was found to be 0.19 µg/mL (≈ 0.109 µM). For the same compound, the “MIC VISA” value in series [3] (Vancomycin-intermediate NRS1) amounted to 1.5 µg/mL (≈ 0.859 µM). The “MIC VRE” value in [4] (ATCC 51559) is greater than 8 µg/mL. In the series “Cytotoxicity MTT assay [5]”, this compound returned a cytotoxic concentration (CC50) at 24 h greater than 500 µM. Moreover, the 50% cytotoxic concentration (CC50) at 24 h in the series “Cytotoxicity MTT assay [6]” is greater than 500 µM. Besides, in series [7], the “Ac2Kaa concentration required” value was 12.5 µg/mL, the MIC turned out to be 0.03 µg/mL (≈ 0.0172 µM) and the “Molar excess of Ac2Kaa ligand required to antagonise antibacterial activity” value was 663. Besides, the “% compound remaining after incubation” value in series [8] was 100%. In “in vitro”, the fraction remaining at 1 h, 20 µM came to 101%; the share remaining at 3 h, 20 µM turned out to be 101%; the fraction remaining at 6 h, 20 µM stood at 100%; the amount remaining at 24 h, 20 µM came out at 89%.
Take `CN[C@H](CC(C)C)C(=O)N[C@H]1C(=O)N[C@@H](CC(N)=O)C(=O)N[C@H]2C(=O)N[C@H]3C(=O)N[C@H](C(=O)N[C@H](C(=O)NCCCC[C@H](NC(=O)[C@H](CCCCN)NC(=O)[C@H](CCCCN)NC(=O)[C@H](CCCCNC(=O)c4ccc(Oc5ccccc5)cc4)NC(=O)c4ccc(Oc5ccccc5)cc4)C(=O)O)c4cc(O)cc(O)c4-c4cc3ccc4O)[C@H](O)c3ccc(c(Cl)c3)Oc3cc2cc(c3O[C@@H]2O[C@H](CO)[C@@H](O)[C@H](O)[C@H]2O[C@H]2C[C@](C)(N)[C@H](O)[C@H](C)O2)Oc2ccc(cc2Cl)[C@H]1O` [Compound 23, POP2K-KK-K(Vancomycin)-OH]: the “MIC MRSA” value in [1] (ATCC 43300, 24 h) is less than 0.003 µg/mL. Besides, the “MIC MDR S.P.” value in [2] (ATCC 700677) is less than 0.003 µg/mL. Further, in [3] (Vancomycin-intermediate NRS1), the “MIC VISA” value was determined as 0.5 µg/mL (≈ 0.212 µM). Further, the “MIC VRE” value in series [4] (ATCC 51559) is 4 µg/mL (≈ 1.7 µM). The compound further came in with a 50% cytotoxic concentration (CC50) at 24 h in the series “Cytotoxicity MTT assay [5]” of 41 µM. In the series “Cytotoxicity MTT assay [6]”, the midpoint of cytotoxicity, the CC50 at 24 h, lay at 47 µM. For the same compound, in series [7], the “Ac2Kaa concentration required” value is 200 µg/mL, the MIC is no more than 0.004 µg/mL and the “Molar excess of Ac2Kaa ligand required to antagonise antibacterial activity” value is 15,102. Also, the “critical micelle concentration (CMC)” value in [9] is “exceed 100 µM”. Moreover, the “% compound remaining after incubation” value in series [8] came to 100%. In the series “in vitro”, the amount remaining at 1 h, 20 µM turned out to be 107%; the fraction remaining at 6 h, 20 µM came out at 103%; the fraction remaining at 24 h, 20 µM was 99%.
On to “POB2K-K-Dap-K(Vancomycin)-NHMe [Compound 27]”, for which the “MIC +50% HS” value with MRSA was 0.25 µg/mL and 0.375 µg/mL.
